Data as given in ChEMBL document CHEMBL4028808, “Design and synthesis of selective CDK8/19 dual inhibitors: Discovery of 4,5-dihydrothieno[3',4':3,4]benzo[1,2-d]isothiazole derivatives” (Bioorg Med Chem, 2017).
Calls of active or inactive are those of the source. No cut-off for these calls is given here.

Assays:
[1] = target: Cyclin-C/Cyclin-dependent kinase 19 (Homo sapiens, UniProt Q9BWU1); assay: Inhibition of kinase tracer-236 binding to GST-tagged CDK19/CyclinC (unknown origin) after 60 mins by TR-FRET assay; assay type: protein-complex assay
[2] = tested on: SW480; assay: Growth inhibition of human SW480 cells after 196 hrs by CellTiter-Glo luminescence assay relative to control; assay type: functional
[3] = AUC (0 to 24 hrs) in ICR mouse plasma at 1 mg/kg, po administered as cassette dose by LC-MS/MS analysis; assay type: ADME, organism-based; design: dose 1 mg/kg, time < 24 hr, route oral
[4] = target: Tyrosine-protein kinase JAK1 (Homo sapiens) (UniProt P23458); assay: Inhibition of JAK1 (unknown origin) at <1 uM using biotinylated poly[Glu:Tyr] (4:1) as substrate pretreated for 5 mins followed by substrate addition measured after 10 mins by Alphascreen assay
[5] = Toxicity in C.B17/Icr scid/scid Jcl mouse mouse; details: in vivo
[6] = tested on: MV4-11; assay: Growth inhibition of human MV411 cells after 196 hrs by CellTiter-Glo luminescence assay; assay type: functional; details: MV4-11, 196 h
[7] = tested on: Mus musculus; assay: In vivo inhibition of CDK8-mediated STAT1 phosphorylation in human RPMI8226 cells xenografted in C.B17/Icr scid/scid Jcl mouse at 2.5 mg/kg, po bid administered for 14 days measured 2 to 8 hrs post last dose; assay type: functional, organism-based
[8] = target: Mitogen-activated protein kinase kinase kinase 19 (Homo sapiens) (UniProt Q56UN5); assay: Binding affinity to partial length wild-type human YSK4 (T1019 to H1328 residues) expressed in bacterial expression system assessed as unbound drug level at 300 nM by KINOMEscan assay
[9] = tested on: Calu-1; assay: Growth inhibition of human Calu1 cells after 196 hrs by CellTiter-Glo luminescence assay; assay type: functional; details: Calu-1, 196 h
[10] = target: Casein kinase I isoform delta (Homo sapiens) (UniProt P48730); assay: Inhibition of CK1delta (unknown origin) at 1 uM using CK1tide as substrate preincubated for 5 mins followed by substrate addition measured after 20 mins in presence of [gamma33P]ATP by scintillation counter method relative to control
[11] = Mean residence time in ICR mouse plasma at 0.1 mg/kg, iv administered as cassette dose by LC-MS/MS analysis; assay type: ADME, organism-based
[12] = target: Interleukin-1 receptor-associated kinase 1 (Homo sapiens) (UniProt P51617); assay: Binding affinity to partial length wild-type human […] (R194 to S712 residues) expressed in mammalian expression system assessed as unbound drug level at 300 nM by KINOMEscan assay
[13] = target: Ephrin type-A receptor 3 (Homo sapiens, UniProt P29320); assay: Binding affinity to partial length wild-type human EPHA3 (D604 to K889 residues) expressed in bacterial expression system by kinome scan assay
[14] = tested on: Mus musculus; assay: Toxicity in C.B17/Icr scid/scid Jcl mouse assessed as body weight loss at 2.5 mg/kg, po qd administered for 14 days measured post last dose; assay type: organism-based; details: in vivo, 336 h
[15] = target: Proto-oncogene tyrosine-protein kinase Src (Homo sapiens) (UniProt P12931); assay: Inhibition of SRC (unknown origin) at <1 uM using biotinylated poly[Glu:Tyr] (4:1) as substrate pretreated for 5 mins followed by substrate addition measured after 10 mins by Alphascreen assay
[16] = target: Cyclin-dependent kinase 19 (Homo sapiens, UniProt Q9BWU1); assay: Binding affinity to partial length wild-type human CDK19 (M1 to N360 residues) expressed in bacterial expression system by KINOMEscan assay
[17] = organism: Homo sapiens; assay: Inhibition of PKA (unknown origin) at 1 uM using PKA peptide as substrate preincubated for 5 mins followed by substrate addition measured after 10 mins in presence of [gamma33P]ATP by scintillation counter method relative to control
[18] = Cmax in ICR mouse plasma at 1 mg/kg, po administered as cassette dose by LC-MS/MS analysis; assay type: ADME, organism-based; design: dose 1 mg/kg, route oral
[19] = target: Dual specificity mitogen-activated protein kinase kinase 1 (Homo sapiens) (UniProt Q02750); assay: Inhibition of MEK1 (unknown origin) at <1 uM using GST-ERK1 as substrate preincubated for 5 mins followed by substrate addition measured after 20 mins in presence of [gamma33P]ATP by scintillation counter method
[20] = target: CDK8/Cyclin C (Homo sapiens) (UniProt P49336+P24863); details: 1 uM
Description: Inhibition of kinase tracer-236 binding to GST-tagged CDK8/CyclinC (unknown origin) at 1 uM after 60 mins by TR-FRET assay relative to control

[21] = tested on: RPMI-8226; assay: Antitumor activity against human RPMI8226 cells xenografted in C.B17/Icr scid/scid Jcl mouse assessed as tumor growth suppression at 1.25 mg/kg, po bid administered for 14 days measured post last dose relative to control; assay type: functional
[22] = target: Rho-associated protein kinase 1 (Homo sapiens) (UniProt Q13464); assay: Inhibition of ROCK1 (unknown origin) at 1 uM using long S6 peptide as substrate pretreated for 5 mins followed by substrate addition measured after 10 mins in presence of [gamma33P]ATP by scintillation counting method relative to control
[23] = target: Mitogen-activated protein kinase 3 (Homo sapiens) (UniProt P27361); assay: Inhibition of ERK1 (unknown origin) at <1 uM using MBP as substrate preincubated for 5 mins followed by substrate addition measured after 60 mins in presence of [gamma33P]ATP by scintillation counter method
[24] = target: Cyclin-dependent kinase 9 (Homo sapiens, UniProt P50750); assay: Inhibition of CDK9 (unknown origin)
[25] = target: Aurora kinase B (Homo sapiens) (UniProt Q96GD4); assay: Inhibition of Aurora B (unknown origin) at <1 uM using aurora peptide as substrate preincubated for 5 mins followed by substrate addition measured after 60 mins in presence of [gamma33P]ATP by scintillation counter method
[26] = target: Vascular endothelial growth factor receptor 2 (Homo sapiens) (UniProt P35968); assay: Inhibition of VEGFR2 (unknown origin) at <1 uM using biotinylated poly[Glu:Tyr] (4:1) as substrate pretreated for 5 mins followed by substrate addition measured after 10 mins by Alphascreen assay
[27] = target: Focal adhesion kinase 1 (Homo sapiens) (UniProt Q05397); assay: Inhibition of FAK (unknown origin) at <1 uM using biotinylated poly[Glu:Tyr] (4:1) as substrate pretreated for 5 mins followed by substrate addition measured after 20 mins by Alphascreen assay
[28] = target: CDK8/Cyclin C (Homo sapiens, UniProt P49336); assay: Inhibition of kinase tracer-236 binding to GST-tagged CDK8/CyclinC (unknown origin) after 60 mins by TR-FRET assay; assay type: protein-complex assay
[29] = tested on: Mus musculus; assay: In vivo inhibition of CDK8-mediated STAT1 phosphorylation in human RPMI8226 cells xenografted in C.B17/Icr scid/scid Jcl mouse at 1.25 mg/kg, po bid administered for 14 days measured 2 to 8 hrs post last dose; assay type: functional, organism-based
[30] = target: High affinity nerve growth factor receptor (Homo sapiens) (UniProt P04629); assay: Inhibition of TrkA (unknown origin) at <1 uM

Chain of Cyclin-dependent kinase 19 (Q9BWU1 whole entry, the tested form may be a part): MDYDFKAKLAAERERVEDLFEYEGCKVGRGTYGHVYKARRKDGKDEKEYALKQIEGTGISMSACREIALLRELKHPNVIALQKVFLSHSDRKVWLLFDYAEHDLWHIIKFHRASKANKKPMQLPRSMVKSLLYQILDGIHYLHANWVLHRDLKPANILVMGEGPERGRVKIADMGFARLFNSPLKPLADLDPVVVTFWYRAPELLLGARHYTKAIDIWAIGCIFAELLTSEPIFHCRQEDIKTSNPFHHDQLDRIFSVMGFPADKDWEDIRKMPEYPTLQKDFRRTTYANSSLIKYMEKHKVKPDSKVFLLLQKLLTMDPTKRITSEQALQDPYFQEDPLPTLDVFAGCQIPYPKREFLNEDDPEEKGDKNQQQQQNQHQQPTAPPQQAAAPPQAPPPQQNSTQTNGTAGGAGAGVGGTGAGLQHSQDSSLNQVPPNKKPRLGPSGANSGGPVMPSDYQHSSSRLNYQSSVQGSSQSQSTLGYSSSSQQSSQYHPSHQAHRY
Chain of Cyclin-C/Cyclin-dependent kinase 19 (Q9BWU1 whole entry): as the sequence (Q9BWU1 whole entry, the tested form may be a part) above
Chain of Cyclin-C/Cyclin-dependent kinase 19 (P24863 whole entry, further chain): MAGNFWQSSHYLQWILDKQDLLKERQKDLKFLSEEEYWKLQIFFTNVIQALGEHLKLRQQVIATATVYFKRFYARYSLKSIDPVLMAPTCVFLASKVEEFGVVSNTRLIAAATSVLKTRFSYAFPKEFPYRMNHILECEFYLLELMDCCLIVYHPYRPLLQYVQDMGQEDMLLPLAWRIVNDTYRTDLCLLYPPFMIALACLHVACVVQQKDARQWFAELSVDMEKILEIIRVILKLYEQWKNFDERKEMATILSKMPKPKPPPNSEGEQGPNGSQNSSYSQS
Chain of Casein kinase I isoform delta (Homo sapiens) (P48730 whole entry, looked up, canonical isoform): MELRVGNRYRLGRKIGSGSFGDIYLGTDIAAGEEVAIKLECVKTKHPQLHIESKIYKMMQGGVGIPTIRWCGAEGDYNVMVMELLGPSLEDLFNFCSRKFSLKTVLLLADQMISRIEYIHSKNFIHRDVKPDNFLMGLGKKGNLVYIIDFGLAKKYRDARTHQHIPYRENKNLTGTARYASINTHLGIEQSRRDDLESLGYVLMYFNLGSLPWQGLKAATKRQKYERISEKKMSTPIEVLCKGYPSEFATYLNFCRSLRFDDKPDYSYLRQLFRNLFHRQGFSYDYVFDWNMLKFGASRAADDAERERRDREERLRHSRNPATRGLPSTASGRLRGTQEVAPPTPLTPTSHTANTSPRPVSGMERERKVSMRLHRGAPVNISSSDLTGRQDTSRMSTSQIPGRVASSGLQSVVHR
Chain of Rho-associated protein kinase 1 (Homo sapiens) (Q13464 2-1354 limits assumed): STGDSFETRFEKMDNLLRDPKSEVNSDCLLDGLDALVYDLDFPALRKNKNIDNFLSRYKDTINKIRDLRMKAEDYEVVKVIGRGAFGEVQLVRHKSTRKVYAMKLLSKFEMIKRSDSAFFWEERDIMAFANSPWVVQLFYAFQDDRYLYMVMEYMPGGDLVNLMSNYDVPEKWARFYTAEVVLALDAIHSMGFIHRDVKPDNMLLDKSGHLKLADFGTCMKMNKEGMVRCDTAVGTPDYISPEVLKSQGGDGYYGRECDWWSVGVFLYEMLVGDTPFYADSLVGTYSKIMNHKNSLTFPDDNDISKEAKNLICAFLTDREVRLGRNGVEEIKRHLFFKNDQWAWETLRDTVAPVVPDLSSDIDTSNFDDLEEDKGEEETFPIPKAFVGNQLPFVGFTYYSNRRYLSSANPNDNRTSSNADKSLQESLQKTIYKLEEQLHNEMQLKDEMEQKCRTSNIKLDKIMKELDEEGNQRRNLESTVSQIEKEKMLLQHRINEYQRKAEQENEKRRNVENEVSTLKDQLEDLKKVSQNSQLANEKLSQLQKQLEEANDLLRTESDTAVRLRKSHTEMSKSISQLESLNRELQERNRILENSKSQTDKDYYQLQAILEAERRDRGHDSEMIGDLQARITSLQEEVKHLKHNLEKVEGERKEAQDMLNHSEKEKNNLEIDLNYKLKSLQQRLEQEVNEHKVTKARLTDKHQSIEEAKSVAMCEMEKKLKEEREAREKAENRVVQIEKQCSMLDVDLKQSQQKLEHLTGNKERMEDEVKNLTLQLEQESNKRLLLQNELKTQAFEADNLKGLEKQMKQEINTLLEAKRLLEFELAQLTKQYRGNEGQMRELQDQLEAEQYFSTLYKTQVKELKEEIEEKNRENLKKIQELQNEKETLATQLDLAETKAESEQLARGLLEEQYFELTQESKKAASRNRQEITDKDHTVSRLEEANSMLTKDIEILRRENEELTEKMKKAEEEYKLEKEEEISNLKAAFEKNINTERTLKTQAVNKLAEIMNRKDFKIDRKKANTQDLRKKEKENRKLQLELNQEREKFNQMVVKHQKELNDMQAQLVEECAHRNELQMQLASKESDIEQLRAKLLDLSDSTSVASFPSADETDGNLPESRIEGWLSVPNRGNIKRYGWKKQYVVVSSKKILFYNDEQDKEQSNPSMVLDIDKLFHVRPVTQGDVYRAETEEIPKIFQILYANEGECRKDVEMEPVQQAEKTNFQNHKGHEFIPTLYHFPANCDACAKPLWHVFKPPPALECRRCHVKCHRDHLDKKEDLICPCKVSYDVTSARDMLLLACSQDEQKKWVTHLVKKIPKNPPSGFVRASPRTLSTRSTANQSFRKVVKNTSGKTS
Chain of Aurora kinase B (Homo sapiens) (Q96GD4 whole entry): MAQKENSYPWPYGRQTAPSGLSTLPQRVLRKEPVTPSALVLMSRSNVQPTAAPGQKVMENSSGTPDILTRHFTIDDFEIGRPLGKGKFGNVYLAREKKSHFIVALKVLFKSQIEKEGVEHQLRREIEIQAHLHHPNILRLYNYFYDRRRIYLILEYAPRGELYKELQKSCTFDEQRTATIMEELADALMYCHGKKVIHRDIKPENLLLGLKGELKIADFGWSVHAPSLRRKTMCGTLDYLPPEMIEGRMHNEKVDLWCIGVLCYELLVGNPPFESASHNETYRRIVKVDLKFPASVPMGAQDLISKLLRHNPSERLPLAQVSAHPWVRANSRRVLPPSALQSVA
Chain of Mitogen-activated protein kinase kinase kinase 19 (Homo sapiens) (Q56UN5 whole entry, the tested form may be a part): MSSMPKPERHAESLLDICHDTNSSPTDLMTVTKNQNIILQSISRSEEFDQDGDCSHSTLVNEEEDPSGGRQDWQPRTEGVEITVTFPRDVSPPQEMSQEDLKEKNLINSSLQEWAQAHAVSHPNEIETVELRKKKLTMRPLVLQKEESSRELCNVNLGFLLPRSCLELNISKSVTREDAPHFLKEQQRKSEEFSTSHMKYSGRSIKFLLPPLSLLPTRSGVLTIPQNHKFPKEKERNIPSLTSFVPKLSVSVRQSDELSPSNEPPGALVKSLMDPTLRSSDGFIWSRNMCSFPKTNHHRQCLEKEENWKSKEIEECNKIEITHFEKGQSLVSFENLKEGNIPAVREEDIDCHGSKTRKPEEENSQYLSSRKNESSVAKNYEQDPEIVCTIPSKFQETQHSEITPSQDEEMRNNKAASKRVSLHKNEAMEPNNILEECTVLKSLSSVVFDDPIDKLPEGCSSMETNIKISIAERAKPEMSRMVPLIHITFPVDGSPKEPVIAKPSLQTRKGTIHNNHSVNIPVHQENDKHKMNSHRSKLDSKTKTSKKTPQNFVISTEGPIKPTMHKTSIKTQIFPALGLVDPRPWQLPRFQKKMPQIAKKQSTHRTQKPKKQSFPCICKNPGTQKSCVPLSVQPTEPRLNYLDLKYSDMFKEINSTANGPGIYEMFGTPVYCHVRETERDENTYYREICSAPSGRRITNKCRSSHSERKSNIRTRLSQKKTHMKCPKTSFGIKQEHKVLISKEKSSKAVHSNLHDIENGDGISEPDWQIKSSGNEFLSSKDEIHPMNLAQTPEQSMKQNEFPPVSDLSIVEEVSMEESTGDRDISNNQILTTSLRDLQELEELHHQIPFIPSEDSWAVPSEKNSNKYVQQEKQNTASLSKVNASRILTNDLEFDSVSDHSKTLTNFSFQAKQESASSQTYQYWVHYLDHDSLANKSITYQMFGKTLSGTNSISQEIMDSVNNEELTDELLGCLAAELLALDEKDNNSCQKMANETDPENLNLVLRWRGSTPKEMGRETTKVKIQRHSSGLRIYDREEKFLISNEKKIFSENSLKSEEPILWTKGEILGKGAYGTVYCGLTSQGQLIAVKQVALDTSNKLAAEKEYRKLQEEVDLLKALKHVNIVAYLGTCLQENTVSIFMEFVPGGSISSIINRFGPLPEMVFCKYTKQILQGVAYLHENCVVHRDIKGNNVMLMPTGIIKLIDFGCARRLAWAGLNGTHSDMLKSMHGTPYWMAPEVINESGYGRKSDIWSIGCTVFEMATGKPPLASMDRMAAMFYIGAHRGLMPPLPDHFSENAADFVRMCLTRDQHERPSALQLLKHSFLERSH
Chain of Mitogen-activated protein kinase 3 (Homo sapiens) (P27361 whole entry): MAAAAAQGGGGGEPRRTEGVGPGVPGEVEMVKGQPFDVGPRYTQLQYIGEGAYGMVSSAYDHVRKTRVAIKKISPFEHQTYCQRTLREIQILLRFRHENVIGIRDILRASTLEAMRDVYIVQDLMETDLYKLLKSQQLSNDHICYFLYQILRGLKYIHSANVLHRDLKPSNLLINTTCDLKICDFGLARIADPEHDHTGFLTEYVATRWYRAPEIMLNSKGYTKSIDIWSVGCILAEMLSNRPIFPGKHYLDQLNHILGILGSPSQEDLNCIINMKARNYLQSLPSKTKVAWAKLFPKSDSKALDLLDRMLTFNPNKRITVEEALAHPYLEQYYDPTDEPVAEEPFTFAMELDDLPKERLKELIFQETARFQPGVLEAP
Chain of Cyclin-dependent kinase 9 (P50750 whole entry): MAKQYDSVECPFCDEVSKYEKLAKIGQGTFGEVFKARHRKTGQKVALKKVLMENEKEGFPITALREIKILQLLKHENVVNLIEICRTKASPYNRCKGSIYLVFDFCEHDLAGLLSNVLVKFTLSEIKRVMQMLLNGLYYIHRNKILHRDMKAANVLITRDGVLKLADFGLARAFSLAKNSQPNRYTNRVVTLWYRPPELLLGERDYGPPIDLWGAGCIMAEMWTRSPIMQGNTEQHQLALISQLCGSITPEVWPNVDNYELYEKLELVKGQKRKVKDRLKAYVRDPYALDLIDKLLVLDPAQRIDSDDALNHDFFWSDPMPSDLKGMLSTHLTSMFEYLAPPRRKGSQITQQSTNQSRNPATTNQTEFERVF

COCCNC(=O)c1ccc(Oc2sc(C(N)=O)c3c2-c2sncc2CC3)cn1
IC50 [1]: 0.99 nM
growth inhibition (GI) [2]: >50%
AUC(0-t) at 24 h [3]: 891 ng·h/mL
inhibition [4]: inactive
MTD [5]: 2.5 mg/kg
GI50 [6]: 1.6 nM
inhibition [7]: Active
Fu [8]: 0.41%
GI50 [9]: 0.43 nM
inhibition [10]: 28%
MRT [11]: 1.93 h
Fu [12]: 0.49%
Kd [13]: > 3000 nM
Activity [14]: 10.2%
inhibition [15]: inactive
Kd [16]: 25 nM
inhibition [17]: 1%
Cmax [18]: 362 ng/mL
inhibition [19]: inactive
inhibition [20]: 105%
T/C [21]: 27%
inhibition [22]: 7%
inhibition [23]: inactive
IC50 [24]: 270 nM
inhibition [25]: inactive
inhibition [26]: inactive
inhibition [27]: inactive
IC50 [28]: 0.46 nM
inhibition [29]: Active
inhibition [30]: inactive
